Assay results from patent US5569665A, “Peptidyl derivatives and their use as metalloproteinases inhibitors” (Celltech Limited, priority 1992, dated 1996).
Structures can show the parent of a compound that is named as a salt.

Columns and labels:
Format in all cases: biochemical
Stromelysin-1 = Stromelysin-1 (Homo sapiens, UniProt P08254); test: Fluorimetric enzyme inhibition assay with peptide substrate (Example A), stromelysin-1; conditions: Ki (app) assumed to approximate true Ki; substrate approx. 20 μm, pH 7.5, overnight
Procedure: (§1) All enzyme assays to determine Ki values were performed using the peptide substrate Dnp-Pro-Leu-Gly-Trp-Ala-D-Arg-NH2. (M. Sharon Stock and Rober D. Gray, JBC 264, 4277-81, 1989). The enzymes cleave at the Gly-Leu bond which can be followed fluorimetrically by measuring the increase in Trp fluorescence emission associated with the removal of the quenching dinitrophenol (Dnp) group.
(§2) Essentially, enzyme (e.g. gelatinase, stromelysin, coilagenase) at 0.08-2 nM; a range of inhibitor concentrations (0.1-50×Ki) and substrate (approx. 20 μm) are incubated overnight in 0.1M Tris/HCl buffer, pH 7.5, containing 0.1M NaCl, 10 mM CaCl2 and 0.05%. Brij 35 at either room temperature or 37° C. depending on the enzyme. The reaction is stopped by adjusting the pH to 4 using 0.1M sodium acetate buffer and the fluorescence read at an excitation wavelength of 280nm and emission wavelength of 346nm.
(§3) Ki values can be established using the equation for tight-binding inhibition: [formula] where Vo is the initial rate of reaction in the absence of inhibitor, Vi is the initial rate in the presence of inhibitor, [E] is the total enzyme concentration and [I] the total inhibitor concentration in the reaction mixture.
(§4) For stromelysin and collagenase, Ki (app) was assumed to approximate to the true Ki as [S]<<Km for the substrate hydrolysis. For gelatinase the Ki was determined by performing the analyses at several substrate concentrations. A plot of Ki (app) vs. [S] then gave the true Ki as the value of the y-axis intercept.

Gelatinase -72 KD = biological target: T1, Gelatinase -72 KD (Homo sapiens, UniProt P08253); test: Fluorimetric enzyme inhibition assay with peptide substrate (Example A), gelatinase; conditions: true Ki from plot of Ki (app) vs. [S], y-axis intercept; pH 7.5, overnight
T1 sequence (P08253 110-660): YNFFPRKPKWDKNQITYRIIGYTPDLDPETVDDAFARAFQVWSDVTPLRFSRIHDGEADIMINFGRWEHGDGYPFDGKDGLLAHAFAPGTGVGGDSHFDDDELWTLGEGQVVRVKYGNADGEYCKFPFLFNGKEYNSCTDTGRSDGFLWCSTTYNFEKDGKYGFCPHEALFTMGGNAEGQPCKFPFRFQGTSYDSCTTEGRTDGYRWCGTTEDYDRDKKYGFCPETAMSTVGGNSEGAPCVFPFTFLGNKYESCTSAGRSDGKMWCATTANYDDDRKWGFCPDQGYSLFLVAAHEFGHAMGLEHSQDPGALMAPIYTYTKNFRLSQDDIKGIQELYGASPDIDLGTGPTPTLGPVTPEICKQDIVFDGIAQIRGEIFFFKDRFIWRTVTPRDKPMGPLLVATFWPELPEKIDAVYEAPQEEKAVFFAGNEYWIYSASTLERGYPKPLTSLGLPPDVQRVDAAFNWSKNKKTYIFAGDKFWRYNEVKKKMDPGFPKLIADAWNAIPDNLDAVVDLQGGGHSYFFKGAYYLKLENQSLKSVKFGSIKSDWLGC
Procedure: as §1, §2, §3, §4

Collagenase = test: Fluorimetric enzyme inhibition assay with peptide substrate (Example A), collagenase; conditions: Ki (app) assumed to approximate true Ki; substrate approx. 20 μm, pH 7.5, overnight
Procedure: as §1, §2, §3, §4

Chain of Stromelysin-1 (P08254 100-477, species assumed): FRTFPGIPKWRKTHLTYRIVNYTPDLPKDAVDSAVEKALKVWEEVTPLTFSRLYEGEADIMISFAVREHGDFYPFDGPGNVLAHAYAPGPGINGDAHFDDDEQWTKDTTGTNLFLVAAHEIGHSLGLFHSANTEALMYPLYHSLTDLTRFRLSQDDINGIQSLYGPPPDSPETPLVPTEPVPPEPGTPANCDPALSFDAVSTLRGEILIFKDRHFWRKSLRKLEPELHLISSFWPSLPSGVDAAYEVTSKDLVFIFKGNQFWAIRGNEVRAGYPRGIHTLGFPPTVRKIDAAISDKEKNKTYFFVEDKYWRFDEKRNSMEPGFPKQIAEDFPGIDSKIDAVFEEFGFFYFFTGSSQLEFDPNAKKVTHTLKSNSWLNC

Row | SMILES | Ki (Stromelysin-1) | Ki (Gelatinase -72 KD) | Ki (Collagenase)
1 | O=C(O)C[C@@H](CCOc1ccccc1)C(=O)N[C@@H](CC1CCCCC1)C(=O)NCCc1ccccc1 [Example 2] | 1510 nM | 22.2 nM | 48800 nM
2 | O=C(C[C@@H](CCOc1ccccc1)C(=O)N[C@@H](CC1CCCCC1)C(=O)NCCc1ccccc1)NO [Example 3, 4-(N-Hydroxyamino)-2-(R)-(3-(2-phenoxyethyl)succinyl)-L-β-cyclohexylalanine-N-(2-phenylethyl)amide] | 29.7 nM | 0.273 nM | 478 nM
3 | O=C(C[C@@H](CCCc1ccncc1)C(=O)N[C@@H](CC1CCCCC1)C(=O)NCCc1ccccc1)NO [Example 5, {4-(N-hydroxyamino)-2(R)-(3-(4-pyridinium)propyl)succinyl}-L-β-cyclohexylalanine-N-(2-phenylethyl)amide trifluoroacetate] | 12.6 nM | 0.035 nM | 186 nM
4 | C[n+]1ccc(CCC[C@H](CC(=O)NO)C(=O)N[C@@H](CC2CCCCC2)C(=O)NCCc2ccccc2)cc1 [Example 6, {4-(N-hydroxyamino)-2-(R)-3-(N-methyl-4-pyridinium)propylsuccinyl}-L-β-cyclohexylalanine-N-(2-phenylethyl)amide iodide] | 681 nM | 8.42 nM | 22000 nM
5 | NS(=O)(=O)c1ccc(CCNC(=O)[C@H](CC2CCCCC2)NC(=O)[C@H](CCCc2ccncc2)CC(=O)NO)cc1 [Example 8, {4-(N-Hydroxyamino)-2-(R)-(3-(4-pyridinium)propyl)succinyl}-L-β-cyclohexylalanine-N-(2-(p-sulphonamidophenyl)ethyl)amide trifluoroacetate] | 11.8 nM | 0.059 nM | 215 nM
